Assay results as given in PubChem BioAssay AID248 (DTP/NCI, 2004).
Where “and” joins values, the source holds several entries; their conditions need not be identical. Equal values may be shown once. Inconclusive results and toxic doses are left out. Cut-off read from the data, not from the text of the source: active = T/C of 150% or more; inactive = T/C below 125%.

Tested on: L1210 leukemia ip in BDF1 mice, survival T/C
Assay: NCI In Vivo Anticancer Drug Screen. Data for tumor model L1210 Leukemia (intraperitoneal) in B6D2F1 (BDF1) mice
Settings: endpoint: mean survival time, higher = longer survival
Procedure, shortened: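 Tumor was transplanted into mice, which were then dosed with test compound or vehicle alone. Survival was recorded for each group, and the treated figure was expressed relative to the control figure.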

[1] = dose: 100.0 mg/kg/injection, schedule: Q04DX002 (ip), vehicle: saline
[2] = dose: 100.0 mg/kg/injection, schedule: Q04DX003 (ip), vehicle: Klucel (hydroxypropylcellulose) (HPC)
[3] = dose: 200.0 mg/kg/injection, schedule: Q04DX002 (ip), vehicle: saline
[4] = dose: 200.0 mg/kg/injection, schedule: Q04DX003 (ip), vehicle: Klucel (hydroxypropylcellulose) (HPC)
[5] = dose: 400.0 mg/kg/injection, schedule: Q04DX003 (ip), vehicle: Klucel (hydroxypropylcellulose) (HPC)
[6] = dose: 100.0 mg/kg/injection, schedule: Q04DX003 (ip), vehicle: saline with Tween-80
[7] = dose: 200.0 mg/kg/injection, schedule: Q04DX003 (ip), vehicle: saline with Tween-80
[8] = dose: 400.0 mg/kg/injection, schedule: Q04DX003 (ip), vehicle: saline with Tween-80
[9] = dose: 100.0 mg/kg/injection, schedule: Q04DX002 (ip), vehicle: Klucel (hydroxypropylcellulose) (HPC)
[10] = dose: 200.0 mg/kg/injection, schedule: Q04DX002 (ip), vehicle: Klucel (hydroxypropylcellulose) (HPC)
[11] = dose: 400.0 mg/kg/injection, schedule: Q04DX002 (ip), vehicle: Klucel (hydroxypropylcellulose) (HPC)
[12] = dose: 100.0 mg/kg/injection, schedule: Q01DX001 (ip), vehicle: carboxymethylcellulose (CMC)
[13] = dose: 200.0 mg/kg/injection, schedule: Q01DX001 (ip), vehicle: carboxymethylcellulose (CMC)
[14] = dose: 100.0 mg/kg/injection, schedule: Q04DX003 (ip), vehicle: saline
[15] = dose: 200.0 mg/kg/injection, schedule: Q04DX003 (ip), vehicle: saline
[16] = dose: 400.0 mg/kg/injection, schedule: Q04DX003 (ip), vehicle: saline
[17] = dose: 100.0 mg/kg/injection, schedule: Q01DX001 (ip), vehicle: saline
[18] = dose: 200.0 mg/kg/injection, schedule: Q01DX001 (ip), vehicle: saline
[19] = dose: 400.0 mg/kg/injection, schedule: Q01DX001 (ip), vehicle: saline
[20] = dose: 75.0 mg/kg/injection, schedule: Q01DX001 (ip), vehicle: saline

Measured: T/C

O=C(O)C(Br)C(Br)C(=O)O (stereo unspecified)
inactive: [1] 92 % of control | [2] 97 % of control | [3] 100 % of control | [4] 103 % of control | [5] 95 % of control

COC(=O)/C=C/c1ccc([N+](=O)[O-])cc1
inactive: [6] 94 % of control and 96 % of control | [7] 96 % of control and 97 % of control | [8] 92 % of control

CCc1ccccc1NC(=O)C(Cl)Cl
inactive: [9] 100 % of control | [10] 103 % of control | [11] 100 % of control

CC1=CC(C)(C)NC(=S)N1c1cc(Cl)ccc1Cl
inactive: dose: 100.0 mg/kg/injection, schedule: Q01DX009 (ip), vehicle: saline with Tween-80 87 % of control | dose: 200.0 mg/kg/injection, schedule: Q01DX009 (ip), vehicle: saline with Tween-80 90 % of control | dose: 224.0 mg/kg/injection, schedule: Q01DX Z (ip), vehicle: methylcellulose (MC) 105 % of control | dose: 334.0 mg/kg/injection, schedule: Q01DX Z (ip), vehicle: methylcellulose (MC) 89 % of control | dose: 400.0 mg/kg/injection, schedule: Q01DX009 (ip), vehicle: saline with Tween-80 92 % of control | dose: 500.0 mg/kg/injection, schedule: Q01DX Z (ip), vehicle: methylcellulose (MC) 86 % of control

O=C1CC(=O)N(Cc2ccccc2)C(=O)N1
inactive: [12] 86 % of control | [13] 95 % of control

S=c1[nH]nc(NC2CCCCC2)s1
inactive: dose: 100.0 mg/kg/injection, schedule: Q01DX009 (ip), vehicle: other 91 % of control | [14] 88 % of control | [15] 91 % of control | [16] 86 % of control

CCCCC(C)C(C#N)(NC(C)=O)C(=O)OCC (stereo unspecified)
inactive: dose: 75.0 mg/kg/injection, schedule: Q04DX003 (ip), vehicle: saline 109 % of control | dose: 150.0 mg/kg/injection, schedule: Q04DX003 (ip), vehicle: saline 98 % of control | dose: 300.0 mg/kg/injection, schedule: Q04DX003 (ip), vehicle: saline 91 % of control

C#CCI
inactive: dose: 37.5 mg/kg/injection, schedule: Q04DX003 (ip), vehicle: Klucel (hydroxypropylcellulose) (HPC) 108 % of control | dose: 75.0 mg/kg/injection, schedule: Q04DX003 (ip), vehicle: Klucel (hydroxypropylcellulose) (HPC) 100 % of control | dose: 150.0 mg/kg/injection, schedule: Q04DX003 (ip), vehicle: Klucel (hydroxypropylcellulose) (HPC) 103 % of control

O=P(O)(O)c1ccccc1
inactive: dose: 50.0 mg/kg/injection, schedule: Q01DX001 (ip), vehicle: carboxymethylcellulose (CMC) 96 % of control | [12] 107 % of control | [13] 98 % of control

O=[N+]([O-])c1ccc(Oc2ccc(F)cc2)c([N+](=O)[O-])c1
inactive: dose: 50.0 mg/kg/injection, schedule: Q01DX001 (ip), vehicle: saline 103 % of control | [17] 103 % of control | [18] 97 % of control | [19] 105 % of control

O=C(O)/C(=C\c1ccccc1Cl)c1ccccc1
inactive: [9] 94 % of control | [10] 90 % of control

CC1(C)CC(=O)C2=C(C1)OC1=C(C(=O)CC(C)(C)C1)C2c1ccccc1[N+](=O)[O-]
inactive: [6] 98 % of control | [7] 88 % of control | [8] 97 % of control

Nc1ccc(S(=O)(=O)c2cc(O)c3ccccc3c2O)cc1
inactive: dose: 12.5 mg/kg/injection, schedule: Q01DX009 (ip), vehicle: saline 91 % of control | dose: 12.5 mg/kg/injection, schedule: Q04DX003 (ip), vehicle: Klucel (hydroxypropylcellulose) (HPC) 103 % of control | dose: 25.0 mg/kg/injection, schedule: Q01DX009 (ip), vehicle: saline 91 % of control | dose: 25.0 mg/kg/injection, schedule: Q04DX003 (ip), vehicle: Klucel (hydroxypropylcellulose) (HPC) 102 % of control | dose: 50.0 mg/kg/injection, schedule: Q04DX003 (ip), vehicle: Klucel (hydroxypropylcellulose) (HPC) 92 % of control

Nc1ccc(S(=O)(=O)F)c(Cl)c1
inactive: [17] 102 % of control | [18] 98 % of control | [19] 98 % of control

O=C(NCCCOc1ccc([N+](=O)[O-])cc1)OCc1ccccc1
inactive: [2] 109 % of control | [4] 107 % of control

COc1nn(O)cc(C)c1=N
inactive: dose: 25.0 mg/kg/injection, schedule: Q04DX002 (ip), vehicle: saline with Tween-80 92 % of control | dose: 100.0 mg/kg/injection, schedule: Q04DX002 (ip), vehicle: saline with Tween-80 96 % of control

CC(=O)Oc1ccc2nccc(C)c2c1
inactive: [17] 100 % of control | [18] 100 % of control | [19] 100 % of control

CC(=O)OCC1OC(OC(C)=O)C(NC(=O)N(C)C(C)=O)C(OC(C)=O)C1OC(C)=O (stereo unspecified)
inactive: [2] 100 % of control | [4] 100 % of control | [5] 97 % of control

C(=N\OCCc1ccccc1)/c1cccnc1
inactive: dose: 100.0 mg/kg/injection, schedule: Q01DX009 (ip), vehicle: saline sonified 98 % of control | dose: 200.0 mg/kg/injection, schedule: Q01DX009 (ip), vehicle: saline sonified 100 % of control | dose: 400.0 mg/kg/injection, schedule: Q01DX009 (ip), vehicle: saline sonified 102 % of control

NC(=O)C1C(=O)c2cccc3c2C1(Br)C(Br)CCC3 (stereo unspecified)
inactive: [17] 93 % of control

Cc1ccc2c(ccc(C)[n+]2C)c1
inactive: dose: 37.5 mg/kg/injection, schedule: Q01DX009 (ip), vehicle: acetone 117 % of control | dose: 37.5 mg/kg/injection, schedule: Q01DX009 (ip), vehicle: saline 110 % of control and 112 % of control | [20] 100 % of control | dose: 75.0 mg/kg/injection, schedule: Q01DX009 (ip), vehicle: saline 118 % of control and 121 % of control | dose: 150.0 mg/kg/injection, schedule: Q01DX001 (ip), vehicle: saline 108 % of control | dose: 150.0 mg/kg/injection, schedule: Q01DX009 (ip), vehicle: acetone 102 % of control | dose: 300.0 mg/kg/injection, schedule: Q01DX001 (ip), vehicle: saline 105 % of control

Cc1noc(-n2c(C)ccc2C)c1C
inactive: [14] 97 % of control | [15] 100 % of control | [16] 95 % of control

CC(=O)NC(C)C(C)C (stereo unspecified)
inactive: [14] 94 % of control | [15] 107 % of control | [16] 104 % of control

O=C1OCC/C1=C/OCCCCCCCCCCO/C=C1\CCOC1=O
inactive: [9] 91 % of control | [10] 91 % of control | [11] 94 % of control

CCCCCCCCCCCCC(=O)N1CCCCCC1
inactive: [1] 102 % of control | [3] 102 % of control | dose: 400.0 mg/kg/injection, schedule: Q04DX002 (ip), vehicle: saline 91 % of control

COc1ccccc1CNC1CCCCC1
inactive: [20] 92 % of control

COc1ccc(C(C)=O)cc1CCCOC(C)=O
inactive: [12] 95 % of control | [13] 106 % of control | dose: 400.0 mg/kg/injection, schedule: Q01DX001 (ip), vehicle: carboxymethylcellulose (CMC) 101 % of control
